Results on four compounds are retold here after patent US20030158250A1, “Agents correcting gene expression regulatory error” (priority 2000, published 2003).

Structures are written as SMILES.

The subject of one assay is TNFα. The experiment in a line: LPS-stimulated TNFα production in monocytes (ELISA). Particulars: human monocytes, final concentration 50 μM, 100 μM or 200 μM, 5 hours, then LPS 4 hours. In kind it is cell-based. The procedure: PBMCs were isolated in the same manner as in item (1) of Example 4. PBMCs were suspended in RPMI 1640 medium containing 5% human serum of blood type-AB, 0.1 mM nonessential amino acid, 1 mM sodium pyruvate, 2 mM L-glutamine (hereinabove manufactured by Bio Whittaker), 10 mM HEPES (manufactured by nakalai tesque), and 1% streptomycin-penicillin (manufactured by Gibco BRL) (hereinafter simply referred to as “5HRPMI medium”) so as to have a concentration of 2×10^6 cells/ml. Thereafter, the suspension was spread on a 24-well cell culture plate (manufactured by Falcon) in a volume of 1 ml/well, and the cells were incubated in a wet-type incubator at 37° C. and 5% CO2 for 1.5 hours. After 1.5 hours, the non-adherent cells were removed by suction, and each well was washed with RPMI 1640 medium, and 1 ml of the 5HRPMI medium was added to the wells, to give monocytes.
To the monocytes obtained above was added in each well 10 μl of a 1 mM, 2 mM or 4 mM aqueous DGE solution (each having a final concentration of 10 μM, 20 μM or 40 μM), or a 5 mM, 10 mM or 20 mM aqueous agarobiose solution (each having a final concentration of 50 μM, 100 μM or 200 μM), or 10 μl of water as a control (i.e. each of concentrations of DGE and agarobiose being 0 μM), and the cells were incubated in a wet-type incubator at 37° C. and 5% CO2 for 5 hours. […]

In a further assay the test system is interleukin-6 (IL-6). Nature of the assay: TPA-induced IL-6 production in peritoneal macrophage (ELISA). It is filed as cell-based. The note with it: mouse peritoneal macrophage, final concentrations 20 μM and 10 μM, 14 hours, IL-6 in culture supernatant by ELISA. As to the method: Four milliliters of a 10% fetal bovine serum-containing RPMI 1640 medium (manufactured by Bio Whittaker, 12-702F) was intraperitoneally injected to ddy mouse (Nippon SLC, female, 7-weeks old), and the mouse was well massaged, and the medium was taken out to obtain peritoneal cells. The peritoneal cells were suspended in the 10% fetal bovine serum-containing RPMI 1640 medium so as to have a concentration of 10^6 cells/ml, and dispensed into 48-well microtiter plate in a volume of 500 μl each. The peritoneal cells were cultured at 37° C. for 2 hours in the presence of 5% CO2 gas. Thereafter, the culture supernatant was removed to give adherent cells to be used as peritoneal macrophage. To each well was freshly dispensed a Dulbecco's modified Eagle's medium (manufactured by Bio Whittaker; 12-917F) without phenol red containing 10% fetal bovine serum and 2 mM L-glutamine in a volume of 500 μl. […] The content of interleukin-6 (IL-6) in the culture supernatant was assayed by enzyme immuno-sandwich assay (ELISA: Matched antibody Pair SamplePak mouse IL-6, manufactured by Endogen). Here, the group with no addition of DGE and TPA aqueous solution (control) was set as a negative control, and the group with addition of TPA aqueous solution alone (control+TPA) was set as a positive control. In addition, all of the assays were carried out twice.

A further assay concerns interleukin-10 (IL-10). Nature of the assay: LPS-induced IL-10 production in RAW 264.7 cells (ELISA). In kind it is cell-based. The note with it: final concentration 20 μM, 5 hours, then LPS 18 hours, IL-10 in culture supernatant by ELISA. The procedure: RAW 264.7 cells (ATCC TIB 71) were suspended in a Dulbecco's modified Eagle's medium (manufactured by Bio Whittaker; 12-604F) containing 10% fetal bovine serum (manufactured by Gibco), so as to have a concentration of 3×10^5 cells/ml. The cell suspension was added to each well of a 48-well microtiter plate in a volume of 0.5 ml each. The cells were cultured at 37° C. in the presence of 5% CO2 gas overnight. To each well was added 5 μl of a 2 mM DGE aqueous solution (final concentration: 20 μM), and the cells were cultured for additional 5 hours. Thereafter, 5 μl of a 100 μg/ml lipopolysaccharide (LPS, manufactured by Sigma, L-2012) aqueous solution was added thereto, and the cells were cultured for 18 hours, and thereafter the culture supernatant was recovered. The content of the interleukin-10 (IL-10) in the culture supernatant was assayed by the enzyme immuno-sandwich assay. Here, the group with no addition of DGE and LPS aqueous solution (control) was set as a negative control, and the group with addition of LPS aqueous solution (control+LPS) alone was set as a positive control. In addition, all of the assays were carried out twice.
(In general: In an ELISA, binding on a coated surface is turned into a signal by an enzyme label.)

The test system of a further assay is HO1 protein. The experiment in a line: HO1 protein induction in RAW 264.7 cells (Western blot). Details: key to Intensity of Bands of HO1 Protein: those showing no bands are indicated by “−,”; the intensities of the bands are indicated by +−, +, ++ in the ascending order of the intensities of the bands; the intensities of the bands are indicated by +−, +, ++ in the ascending order of the intensities of the bands; the intensities of the bands are indicated by +−, +, ++ in the ascending order of the intensities of the bands. Particulars: for induction action for HO production (band ascribed to HO1 protein): 15 hours, DGE at 10 to 40 μM. It is filed as cell-based. The procedure:
RAW 264.7 cells (ATCC TIB 71) were suspended in a Dulbecco's modified Eagle's medium (manufactured by Bio Whittaker; 12-604F) containing 10% fetal bovine serum (manufactured by Gibco), so as to have a concentration of 3×10^5 cells/ml. The cell suspension was added to each well of a 6-well microtiter plate in a volume of 5 ml each. The cells were cultured at 37° C. in the presence of 5% CO2 gas overnight. To each well was added 50 μl of 4 mM, 2 mM or 1 mM DGE aqueous solution (each of final concentrations: 40 μM, 20 μM or 10 μM), and the cells were cultured for 15 hours. […] The cells were harvested by peeling off the cells from the plate with a scraper. The harvested cells were suspended in 0.1 M Tris-HCl buffer (pH 7.5) containing 0.05 mM pepstatin (manufactured by Sigma, P5318), 0.2 mM leupeptin (manufactured by Sigma, L2884), 1 mM phenylmethylsulfonyl fluoride (manufactured by nakalai tesque, 273-27), 10 mM disodium dihydrogenethylenediaminetetraacetate and 0.1% Triton X-100, and subjected to freezing and thawing once. Thereafter, the supernatant obtained by centrifugation was used as a protein fraction. The protein content in the protein fraction was assayed by Micro BCA Protein Assay Reagent (one manufactured by Pierce sold by Takara Shuzo Co., Ltd., P7411). Each of the resulting protein fraction samples was mixed with an equal volume of 0.125 M Tris-HCl buffer (pH 6.8) containing 4% sodium lauryl sulfate (SDS), 2% 2-mercaptoethanol,
0.001% Bromophenol Blue and 20% glycerol, and the mixture was treated at 100° C. for 5 minutes. A mixture containing a protein in an amount of 10 μg or so was loaded on 12.5% SDS-polyacrylamide gel, and electrophoresed with a constant current of 20 mA. In a blotting buffer containing 48 mM Tris, 39 mM glycine, 20% methanol, 0.0375% SDS, the gel after the electrophoresis was transferred to a PDVF membrane (manufactured by Millipore Corporation, IPVHOOO 10) in accordance with the attached protocol, using transblot SD cell semi-drive blotting device (manufactured by BioRad), at a constant voltage of 15 V for 25 minutes. The transferred PVDF membrane was blocked overnight in a Block Ace (manufactured by DAINIPPON PHARMACEUTICAL CO., LTD., UK-B25) solution at 4° C. The blocked membrane was washed for 15 minutes thrice with phosphate-buffered physiological saline containing 0.1% Tween 20 under gentle shaking. Thereafter, the membrane was subjected to the reaction under gentle shaking in phosphate-buffered physiological saline containing 10% Block Ace with a 200 ng/ml anti-HOl antibody (N-19, manufactured by Santa Cruz, sc-7696) and 0.1% Tween 20 at room temperature for 1 hour, and was washed for 15 minutes thrice with phosphate-buffered physiological saline containing 0.1% Tween 20 under gentle shaking. Next, the membrane was subjected to the reaction under gentle shaking in phosphate-buffered physiological saline with 10% Block Ace with 0.1% peroxidase-conjugated rabbit anti-goat IgG (H+L) antibody (manufactured by Zymed, 61-1620) and 0.1% Tween 20 at room temperature for 1 hour, and was washed for 15 minutes five times with phosphate-buffered physiological saline containing 0.1% Tween 20 under gentle shaking. Subsequently, a PVDF membrane was stained by using Western blot Chemiluminescence Reagent Plus (one manufactured by NEN Life Science Products sold by Daiichikagaku, NEL103) in accordance with the attached protocol, and sensitized on an X-ray film (manufactured by Kodak, CAT 1651454). The sensitized film was developed with FPM800 (manufactured by Fuji Photo Film Co., Ltd.).
As a result, there could be confirmed a band ascribed to HO1 protein in the group with addition of DGE. […] In the table, + symbols were given in accordance with the intensity of the band for HO1 protein. In other words, in Table 3, those showing no bands are indicated by “−,” and the intensities of the bands are indicated by +−, +, ++ in the ascending order of the intensities of the bands.
For orientation: A western blot detects proteins with antibodies after separation by electrophoresis.

As for `OC[C@H]1O[C@@H](O[C@H]2[C@H]3OC[C@@H]2OC(O)[C@H]3O)[C@H](O)[C@@H](O)[C@H]1O` (mixture of isomers) [agarobiose], the “inhibition of LPS-stimulated TNFα production” value in the assay on TNFα is “inhibition”.
Regarding `O=C1C=CC(CO)OC1O` [κ-DGE, D-Glycero-1,5-epoxy-1αβ,6-dihydroxy-cis-hex-3-en-2-one], in the assay with interleukin-6 (IL-6) (listed as K-DGE), the “inhibition of TPA-induced IL-6 production” value is given as “inhibitory action”. In the assay on interleukin-10 (IL-10), the “inhibition of LPS-induced IL-10 production” value is listed as “inhibitory action”. Besides, in the assay on HO1 protein, the “induction action for HO production (band ascribed to HO1 protein)” value is on record as “induction action”.
`CCCCC/C=C/C=C1/C(=O)C=C[C@@H]1C/C=C\CCCC(=O)O` [15-Deoxy-Δ12,14 prostaglandin J2, reference compound]: the “Intensity of Bands of HO1 Protein” value in the assay on HO1 protein (5 μl of 3 mM dimethyl sulfoxide solution added to 5 ml well, positive control) is listed as “++”.
`N[C@@H](CCC(=O)N[C@@H](CSC1CC2(O)OCC1OC2O)C(=O)NCC(=O)O)C(=O)O` (stereo partly drawn) [DGE-GSH, 5-L-glutathion-S-yl-2-hydroxy-3,7-dioxabicyclo[2.2.2]octan-1-ol]: the “inhibition of TPA-induced IL-6 production” value with interleukin-6 (IL-6) is “inhibitory action”. Besides, the “inhibition of LPS-induced IL-10 production” value in the assay with interleukin-10 (IL-10) is recorded as “inhibitory action”. Also, the “induction action for HO production (band ascribed to HO1 protein)” value with HO1 protein is reported as “induction action”. In addition, the “inhibitory activity for cancer cell proliferation” value in the assay on HL-60 cells is “active”.
